What was measured:
[1] = tested on: CT26 mouse colorectal cancer; assay: Subcutaneous CT26 colorectal cancer syngeneic model, anti-tumour efficacy; type: in vivo; conditions: 10 per group
Source text: (§1) The in vivo effect of METTL3 inhibition in combination with anti-PD1 immune checkpoint inhibitor was investigated using syngeneic mouse tumour models in immune-competent hosts. Mouse tumour models can be grown in appropriate host strains and are widely used to investigate the effects of therapeutic agents on the immune system and cancer growth. There are a limited range of mouse syngeneic tumour models available, far fewer than human cell lines, and they are widely used in the art to support potential clinical utility of immune stimulatory approaches across multiple indications. We exemplify the potential role of STM3480 and combinations with immune checkpoint inhibitors such as anti-PD-1 antibodies in multiple tumour models including A20 (murine B cell lymphoma), EMT-6 (murine breast cancer) and CT-26 (murine colorectal cancer).
The objective of this study is to assess the anti-tumour efficacy of STM3480 in combination with anti-PD1 in subcutaneous CT26 mouse colorectal cancer model in female BALB/c mice. CT26.WT (CRL-2638) mouse […] cells were cultured in (RPMI—1640+10% FBS+2 mM L-Glutamine) media. […]
(§2) Tumours were measured three times a week and tumour volumes estimated using the formula 0.5 (L×W^2) by measuring the tumour in two dimensions using electronic callipers for the duration of the study. […]

[2] = tested on: EMT6 mouse breast cancer; assay: Subcutaneous EMT6 breast cancer syngeneic model, anti-tumour efficacy; type: in vivo; conditions: 10 per group
Source text: as §1
The objective of this study is to assess the anti-tumour efficacy of STM3480 in combination with anti-PD1 in subcutaneous EMT6 mouse breast cancer model in female BALB/c mice.
EMT6 (#ATCC CRL-2755) mouse breast cancer cells were cultured in (Waymouth's MB 752/1 Medium with 2 mM L-glutamine, 85%; foetal bovine serum (non-heat inactivated), 15%) media. […]
as §2

O=C(NCc1ccc2cc(CNCC3CCC3)[nH]c2c1)c1cc(=O)n2ccccc2n1 [STM3480, N-[(2-{[(cyclobutylmethyl)amino]methyl}-1H-indol-6-yl)methyl]-4-oxo-4H-pyrido[1,2-a]pyrimidine-2-carboxamide]
Mean tumour volume d28 ([1]; CT26, female BALB/c mice, STM3480 50 mg/kg p.o., anti PD1 10 mg/kg i.p. BIW, up to 3 weeks): 768 mm3 | No. mice with regressions ([1]; CT26): 0 | Mean tumour volume d21 ([2]; EMT6, female BALB/c mice, STM3480 50 mg/kg p.o., anti PD1 10 mg/kg i.p. BIW, up to 3 weeks): 141 mm3 | No. mice with complete regressions ([2]; EMT6): 1

From patent publication US20240277715A1, “COMBINATION THERAPIES COMPRISING A METTL3 INHIBITOR AND A FURTHER ANTICANCER AGENT” (Storm Therapeutics Limited, priority 2021, published 2024)
